Measured values published in BigSolDB 2.1.

Cl.c1ccc([C@H]2CN3CCSC3=N2)cc1
Settings	solubility (mole fraction)
in DMSO, 293.15 K	0.0117
in DMSO, 298.15 K	0.0129
in DMSO, 303.15 K	0.014
in DMSO, 308.15 K	0.0157
in DMSO, 313.15 K	0.0173
in DMSO, 318.15 K	0.0193
in DMSO, 323.15 K	0.0218
in DMSO, 328.15 K	0.0237
in DMSO, 333.15 K	0.0265
in ethanol, 283.15 K	0.00753
in ethanol, 288.15 K	0.00881
in ethanol, 293.15 K	0.0101
in ethanol, 298.15 K	0.0119
in ethanol, 303.15 K	0.0153
in ethanol, 308.15 K	0.0178
in ethanol, 313.15 K	0.0201
in ethanol, 318.15 K	0.0244
in ethanol, 323.15 K	0.0289
in isobutanol, 283.15 K	0.000869
in isobutanol, 288.15 K	0.00131
in isobutanol, 293.15 K	0.00182
in isobutanol, 298.15 K	0.00247
in isobutanol, 303.15 K	0.00334
in isobutanol, 308.15 K	0.00447
in isobutanol, 313.15 K	0.00577
in isobutanol, 318.15 K	0.00747
in isobutanol, 323.15 K	0.00937
in isopentanol, 283.15 K	0.00108
in isopentanol, 288.15 K	0.00134
in isopentanol, 293.15 K	0.00182
in isopentanol, 298.15 K	0.00234
in isopentanol, 303.15 K	0.00287
in isopentanol, 308.15 K	0.00402
in isopentanol, 313.15 K	0.00542
in isopentanol, 318.15 K	0.00676
in isopentanol, 323.15 K	0.00873
in isopropanol, 283.15 K	0.000856
in isopropanol, 288.15 K	0.00104
in isopropanol, 293.15 K	0.00138
in isopropanol, 298.15 K	0.00179
in isopropanol, 303.15 K	0.00225
in isopropanol, 308.15 K	0.00275
in isopropanol, 313.15 K	0.00319
in isopropanol, 318.15 K	0.00401
in isopropanol, 323.15 K	0.00475
in methanol, 283.15 K	0.0298
in methanol, 288.15 K	0.0357
in methanol, 293.15 K	0.0429
in methanol, 298.15 K	0.0513
in methanol, 303.15 K	0.0595
in methanol, 308.15 K	0.0696
in methanol, 313.15 K	0.0816
in methanol, 318.15 K	0.0955
in methanol, 323.15 K	0.109
in n-butanol, 283.15 K	0.00182
in n-butanol, 288.15 K	0.00236
in n-butanol, 293.15 K	0.00311
in n-butanol, 298.15 K	0.00407
in n-butanol, 303.15 K	0.00542
in n-butanol, 308.15 K	0.00699
in n-butanol, 313.15 K	0.00888
in n-butanol, 318.15 K	0.0111
in n-butanol, 323.15 K	0.0139
in n-hexanol, 283.15 K	0.000727
in n-hexanol, 288.15 K	0.000986
in n-hexanol, 293.15 K	0.00136
in n-hexanol, 298.15 K	0.00198
in n-hexanol, 303.15 K	0.00226
in n-hexanol, 308.15 K	0.00283
in n-hexanol, 313.15 K	0.0035
in n-hexanol, 318.15 K	0.00437
in n-hexanol, 323.15 K	0.00524
in n-pentanol, 283.15 K	0.000747
in n-pentanol, 288.15 K	0.00112
in n-pentanol, 293.15 K	0.00161
in n-pentanol, 298.15 K	0.00209
in n-pentanol, 303.15 K	0.00293
in n-pentanol, 308.15 K	0.00377
in n-pentanol, 313.15 K	0.00471
in n-pentanol, 318.15 K	0.00605
in n-pentanol, 323.15 K	0.00745
in n-propanol, 283.15 K	0.00412
in n-propanol, 288.15 K	0.00492
in n-propanol, 293.15 K	0.00631
in n-propanol, 298.15 K	0.00751
in n-propanol, 303.15 K	0.00903
in n-propanol, 308.15 K	0.0109
in n-propanol, 313.15 K	0.013
in n-propanol, 318.15 K	0.0149
in n-propanol, 323.15 K	0.0169
in sec-butanol, 283.15 K	0.000587
in sec-butanol, 288.15 K	0.000722
in sec-butanol, 293.15 K	0.000867
in sec-butanol, 298.15 K	0.00105
in sec-butanol, 303.15 K	0.00123
in sec-butanol, 308.15 K	0.00148
in sec-butanol, 313.15 K	0.00177
in sec-butanol, 318.15 K	0.00213
in sec-butanol, 323.15 K	0.00252
in water, 283.15 K	0.0664
in water, 285.65 K	0.0718
in water, 288.15 K	0.0769
in water, 290.65 K	0.0825
in water, 293.15 K	0.0879
in water, 295.65 K	0.0943
in water, 298.15 K	0.101
in water, 300.65 K	0.106
in water, 303.15 K	0.113
in water, 305.65 K	0.12
in water, 308.15 K	0.127
